The numbers were not newly measured in patent publication US10398729B2, “Method for treating Alzheimer's disease” (priority 2012, dated 2019), which cites them from elsewhere.

In data set [1] the test system is patients with mild-to-moderate AD.
Data set [2] relates to primary human fibroblast cells (IMR-90). To be noted: IMR-90 cells in vitro.
Another data set deals with hepatoma cells SMMC-7721. The following applies: 20.0 μmol/L chromic chloride.
The subject of data set [3] is elderly adults with early memory decline.
The subject of the next data set is brain functions. The following applies: prolonged intranasal administration.

Regarding `C=C1/C(=C\C=C2/CCC[C@]3(C)[C@@H]([C@H](C)CCCC(C)(C)O)CC[C@@H]23)C[C@@H](O)C[C@@H]1O` [1,25D3, 1alpha,25-dihydroxyvitamin D3], in the data set on macrophages, the apoptosis entry was “protecting against apoptosis”. Also, the “Abeta phagocytosis and clearance” value with macrophages (studied in combination with curcuminoids) was “strongly stimulated”.

For `CCCCCCCC(=O)OCC(COC(=O)CCCCCCC)OC(=O)CCCCCCC` [AC-1202], the memory and cognition entry in data set [1] is “improves memory and cognition”.

Consider `CC(C)(C)NO` [N-tert-butylhydroxylamine (NtBHA), N-tert-butylhydroxylamine], for which the “senescence-related and H2O2-stimulated iron accumulation” value in data set [2] was “attenuated”.

Take `[Cl][Cr]([Cl])[Cl]` [chromic chloride]: the telomere lengths entry in the data set with hepatoma cells SMMC-7721 is reported as “remarkably extended the telomere lengths”.

chromium picolinate: in data set [3], the “cognitive performance and brain function” value was “can improve cognitive performance and brain function”.

insulin: in the data set with brain functions, the memory and mood result was “improving memory and mood”; the systemic side effects entry was “absence of systemic side effects”.
